Consider 19 compounds from US5514706A, “Pharmaceutical compounds” (Eli Lilly and Company, priority 1994, dated 1996).

What all share (type): cell-based
Data set [1] relates to plasminogen activator (PA) activity in bovine retinal capillary endothelial cells. As to the kind of experiment: Activation of retinal capillary endothelial cells by phorbol esters (PA activity). Particulars: for pIC50: Bos taurus, Endothelial cell, dose-response curves of PA activity, read-out: IC50 from dose-response curves for phorbol ester (activation of PA activity). An excerpt: (§1) Retinal capillary endothelial cell cultures were initiated from bovine eyes using a modification of the procedure of Buzney et al., Investigative Ophthalmology and Visual Sciences, 24: 470-483. Bovine eyes were transported on ice from a local abattoir. Extraocular muscle was trimmed from the eye, and the eye bisected posterior to the ora serrata. The vitreous and anterior portion of the eye were discarded, and the neuro-retina was gently dissected from the posterior eyecup. The retinas from 20 cattle were pooled and homogenized (5 strokes of a Teflon/glass homogenizer) in Hank's saline. The homogenate was passed through a 350μ filter to remove large debris and a 210μ filter to remove large vessels. The microvessels were trapped on a 85μ filter. The microvessels were resuspended in Hank's saline and digested with 7.5 mg/ml bacterial collagenase (Boeringher Mannhelm, Indianapolis) in Hank's saline for 1 hour at 37° C. The cells were pelleted by centrifugation (100 xg, 10 min), resuspended in 5 ml Endothelial Growth Media (EGM, Clonetics) and seeded in a gelatin-coated T-25 flask. After 24 hours the cells were trypsinized and replated in a gelatin coated T225. At 7 days and again at 14 days the cultures were labeled with acetylated lipoproteins labeled with the fluorescent probe (1,1'-dioctadecyl-3,3,3,3,-tetramethyl-indocarbocyanine perchlorate). The endothelial cells were separated from contaminating cell types using a fluorescent cell sorter as described in Voyta et al., J. Cell Biology. 99: 2034-2040.
(§2) Retinal capillary endothelial cells were seeded into 96-well plates and grown to confluence (10^5 cells/well) in EGM containing 10% fetal bovine serum (FBS). The media was changed to Dubecco's Modified Eagle's Medium with 10% fetal bovine serum 24 hours prior to the assay. The cells were treated with 50 nM 4-b phorbol 12,13-dibutyrate (4-b PDBu) to activate PKC and produce the activated endothelial phenotype characteristic of the diabetic state. The activated cells were treated with a series of dilutions of the test compounds. The phorbol esters and the test compounds were dissolved in DMSO before adding to the culture media. The cultures were incubated at 37° C. for 48 hours. Following treatment, the cells were lysed with 25 mM NH4 OH in 0.5% triton X-100.
(§3) The activation of bovine retinal capillary endothelial cells was monitored through alterations in cellular plasminogen activator (PA) activity in the cell lysates. Plasminogen activator activity was determined in a 50 μl aliquot of cell lysate using the synthetic substrate H-D-valyl-L-leucyl-lysine-p-nitroaniline dihydrochloride (Kabi).
There was also a two fold increase in cell number. […] Dose-response curves generated for 4-b PDBu and 4-b PMA indicated IC50 of 50 nH and 5 nH respectively. Elevated PA activity was observed only after prolonged (at least 8 hours) stimulation with phorbol esters. The PA activity continued to increase in a time and dose dependent manner for up to 72 hours, but constant stimulation with phorbol ester was required to maintain endothelial cell activation.

The subject of data set [2] is bovine retinal capillary endothelial cells. As to the kind of experiment: Retinal capillary endothelial cell number after phorbol ester treatment. Particulars: confluent cells, 48 hours.
From the text: as §1, with “The endothelial cells were separated from contaminating cell types using a fluorescent cell sorter as described in Voyta et al., J. Cell Biology. 99: 2034-2040.” left out

The subject of data set [3] is cultured smooth cells derived from rabbit aorta. The data set is described as follows: 3H-thymidine incorporation (DNA synthesis) in vascular smooth muscle cells stimulated with platelet-derived growth factor. Particulars: Oryctolagus cuniculus; 20 ng/ml platelet-derived growth factor, 24 hours. Here is the method: Cells are obtained by explant method as described in Ross, J. Of Cell Bio. 50: 172 (1971). Cells are plated in 96 well microtiter plates for five days. The cultures become confluent and growth arrested. The cells are then transferred to Dulbecco's Modified Eagle's Medium (DMEM) containing 0.5-2% platelet poor plasma, 2 mM L-glutamine, 100 U/ml penicillin, 100 μg ml streptomycin, 1 μ/ml ^3 H-thymidine, 20 ng/ml platelet-derived growth factor and varying concentrations of the compounds. Stock solution of compounds is prepared in dimethyl sulphoxide and then diluted to appropriate concentration (0.01-10 μg/ml) in the above assay medium. Cells are then incubated at 37° C. for 24 hours under 5% CO2 /95% air. At the end of 24 hours, the cells are fixed in methanol. ^3 H thymidine incorporation in DNA was then determined by scintillation counting as described in Bonin et al., Exp. Cell Res. 181:475-482 (1989).
Table 1 discloses the IC50 value of representative compounds tested in the ^3 H-thymidine incorporation model. Thus the invention specifically provides a method of treating restenosis, which comprises administering to a patient in need of treatment an effective amount of a compound of the formula (I).

In data set [4] the test system is plasminogen activator (PA) activity in bovine retinal capillary endothelial cells. As to the kind of experiment: Inhibition of phorbol ester-induced activation of retinal capillary endothelial cells (plasminogen activator (PA) activity in cell lysates). Particulars: Bos taurus, activated with 50 nM 4-b PDBu, 48 hours, cell lysate, read-out: PA ED50.
From the text: as §1, §2, §3
Cell toxicity was determined in a parallel series of cultures using a neutral red assay. Borenfreund, E. and Puerner, J, J. Tiss. Cult. Meth. 9:7 (1984). […] Table 1 discloses the PA ED50 value in this model for representative compounds. The in vitro endothelial cell model was correlated with in situ and in vivo activities by the following models.

pIC50: −log10 of the molar value.

In the case of `CCCC(=O)O[C@@H]1[C@@H](C)[C@@]2(O)[C@@H](C=C(CO)C[C@@]3(O)C(=O)C(C)=C[C@@H]23)[C@@H]2C(C)(C)[C@]12OC(=O)CCC` [4-a PDBu], the “increase in activation occurred only after treatment with phorbol esters known to activate PKC (yes/no)” value (shortened to “increase in activation occurred only … (yes/no)”) in data set [1] is “not”.
Regarding `CCCC(=O)O[C@@H]1[C@@H](C)[C@@]2(O)[C@@H](C=C(CO)C[C@]3(O)C(=O)C(C)=C[C@@H]23)[C@@H]2C(C)(C)[C@]12OC(=O)CCC` [4-b PDBu, 4-b phorbol 12,13-dibutyrate], the “increase in cell number” value in data set [2] was “two”. For the same compound, in data set [1], the “increase in activation occurred only … (yes/no)” value is reported as “increase in activation occurred” and the pIC50 is 7.30. Moreover, in data set [1] (confluent cells, 48 hours), the “increase in PA activity associated with the cell layer” value was determined as 12 fold and the “increase in PA released into the media” value stood at 12 fold.
On to `CCCCCCCCCCCCCC(=O)O[C@@H]1[C@@H](C)[C@@]2(O)[C@@H](C=C(CO)C[C@]3(O)C(=O)C(C)=C[C@@H]23)[C@@H]2C(C)(C)[C@]12OC(C)=O` [4-b PMA], for which, in data set [1], the “increase in activation occurred only … (yes/no)” value is on record as “increase in activation occurred” and the pIC50 is 8.30.
In the case of `N#CC1=C(N)Oc2ccc3ccccc3c2C1c1cccc([N+](=O)[O-])c1` (stereo not drawn) [Example 2, 2-Amino-4-(3-nitrophenyl) -4H-naphtho 2,1-b!pyran-3-carbonitrile], the results for the pIC50 in data set [3] and in data set [4] were 5.60 and 6.15, respectively.
On to `N#CC1=C(N)Oc2ccc3ccccc3c2C1c1ccc([N+](=O)[O-])cc1` (stereo not drawn) [Example 3, 2-Amino-4-(4-nitrophenyl)-4H-naphtho 2,1-b!pyran-3-carbonitrile], for which the pIC50 in data set [3] was 5.10; in data set [4], below 4.70.
Consider `N#CC1=C(N)Oc2ccc3ccccc3c2C1c1ccccc1[N+](=O)[O-]` (stereo not drawn) [Example 4, 2-Amino-4-(2-nitrophenyl)-4H-naphtho 2,1-b!pyran-3-carbonitrile], for which the pIC50 is below 4.52 in data set [3] and below 4.70 in data set [4].
The corresponding values for `N#CC1=C(N)Oc2ccc3ccccc3c2C1c1cccc(Br)c1` (stereo not drawn) [Example 5, 2-Amino-4-(3-bromophenyl)-4H-naphtho 2,1-b!pyran-3-carbonitrile] are 5.74 and 6.15.
For the compound `N#CC1=C(N)Oc2ccc3ccccc3c2C1c1cccc(Cl)c1` (stereo not drawn) [Example 6, 2-Amino-4-(3-chlorophenyl)-4H-naphtho 2,1-b!pyran-3-carbonitrile], the pIC50 was 5.70 in data set [3] and 6.00 in data set [4].
The compound `N#CC1=C(N)Oc2ccc3ccccc3c2C1c1cccc(F)c1` (stereo not drawn) [Example 7, 2-Amino-4-(3-fluorophenyl)-4H-naphtho 2,1-b!pyran-3-carbonitrile] gave a pIC50 in data set [3] of 5.70.
`N#CC1=C(N)Oc2ccc3ccccc3c2C1c1ccc(F)cc1` (stereo not drawn) [Example 8, 2-Amino-4-(4-fluorophenyl)-4H-naphtho 2,1-b!pyran-3-carbonitrile]: the pIC50 in data set [3] is 5.82; in data set [4], 5.05.
For the compound `N#CC1=C(N)Oc2ccc3ccccc3c2C1c1ccccc1F` (stereo not drawn) [Example 9, 2-Amino-4-(2-fluorophenyl) -4H-naphtho 2,1-b!pyran-3-carbonitrile], the results for the pIC50 in data set [3] and in data set [4] were below 5.52 and below 4.70, respectively.
With `N#CC1=C(N)Oc2ccc3ccccc3c2C1c1cccc(C(F)(F)F)c1` (stereo not drawn) [Example 10, 2-Amino-4-3-(trifluoromethyl)phenyl!-4H-naphtho 2,1-b!pyran-3-carbonitrile], the values for the pIC50 in data set [3] and in data set [4] were 6.30 and 7.30, respectively.
Consider `N#CC1=C(N)Oc2ccc3cc(C(=O)O)ccc3c2C1c1cccc([N+](=O)[O-])c1` (stereo not drawn) [Example 11, 2-Amino-3-cyano-4-(3-nitrophenyl)-4H-naphtho 2,1-b!pyran-7-carboxylic acid], for which the pIC50 is below 4.52 in data set [3] and below 4.70 in data set [4].
On to `N#CC1=C(N)Oc2c(O)cc3ccccc3c2C1c1cccc([N+](=O)[O-])c1` (stereo not drawn) [Example 12, 2-Amino-10-hydroxy-4-(3-nitrophenyl)-4H-naphtho 2,1-b!pyran-3-carbonitrile], for which the pIC50 was 5.52 in data set [3] and 6.19 in data set [4].
Take `COc1ccc2ccc3c(c2c1)C(c1cccc([N+](=O)[O-])c1)C(C#N)=C(N)O3` (stereo not drawn) [Example 13, 2-Amino-6-methoxy-4-(3-nitrophenyl)-4H-naphtho 2,1-b!pyran-3-carbonitrile]: the pIC50 in data set [3] was below 5.52; in data set [4] it was below 4.70.
As for `COc1cccc(C2C(C#N)=C(N)Oc3ccc4cc(C(=O)O)ccc4c32)c1` (stereo not drawn) [Example 14, 2-Amino-3-cyano-4-(3-methoxyphenyl)-4H-naphtho 2,1-b!pyran-7-carboxylic acid], in data set [4], the pIC50 was below 4.00.
`N#CC1=C(N)Oc2ccc3cc(C(=O)O)ccc3c2C1c1cccc(C(=O)O)c1` (stereo not drawn) [Example 15, 2-Amino-3-cyano-4-(3-carboxyphenyl)-4H-naphtho 2,1-b!pyran-7-carboxylic acid]: in data set [4], the pIC50 is 5.30.
For `N#CC1=C(N)Oc2ccc3cc(C(=O)O)ccc3c2C1c1cccc(OC(F)(F)F)c1` (stereo not drawn) [Example 16, 2-Amino-3-cyano-4-3-(trifluoromethoxy)phenyl!-4H-naphtho 2,1-b!pyran-7-carboxylic acid], the pIC50 in data set [4] was below 4.00.
With `CCOC=NC1=C(C#N)C(c2cccc([N+](=O)[O-])c2)c2c(ccc3cc(C(=O)OCC)ccc23)O1` (stereo not drawn) [Example 17, Ethyl 3-cyano-2-ethoxymethyleneamino-4-(3-nitrophenyl)-4H-naphtho 2,1-b!pyran-7-carboxylate], the pIC50 was 5.22 in data set [3] and 5.10 in data set [4].
